Laboratory results: patent US20260306490A1, “PIM1 INHIBITOR FOR TREATING MYELOPROLIFERATIVE NEOPLASMS” (Sumitomo Pharma America, Inc., priority 2022, published 2026)

Tests used:
[1] = tested on: human myeloid progenitors (CFU-GM); test: Colony forming cell assay, human myeloid (granulocyte-monocyte, CFU-GM) progenitor proliferation; assay type: cell-based; details: single agent
Protocol: (§1) Clonogenic progenitors of human erythroid (CFU-E, BFU-E), granulocyte-monocyte (CFU-GM), and multipotential (CFU-GEMM) lineages were assessed in a semi-solid methylcellulose-based media formulation containing rhIL-3 (10 ng/mL), rhGM-SCF (10 ng/mL), rhSCF (50 ng/mL), and Epo (3 U/mL).
(§2) In addition, 5-FU was evaluated at 1.0, 0.1 and 0.01 μg/mL as a positive control for toxicity.
(§3) Normal human bone marrow light density cells (lot #0210901), derived from normal bone marrow, (Lonza, Maryland) and qualified at ReachBio, were stored at −152° C. until required for the assay. On the day of the experiment, the cells were thawed rapidly, diluted in 10 mL of Iscove's modified Dulbecco's medium containing 10% fetal bovine serum (IMDM+10% FBS) and washed by centrifugation (approximately 1500 r.p.m. for 10 minutes at room temperature). The supernatant was discarded and the cell pellets were resuspended in a known volume of IMDM+10% FBS. A cell count (3% glacial acetic acid) and viability assessment (trypan blue exclusion test) was performed for the bone marrow sample.
(§4) Clonogenic progenitors of human megakaryocyte (CFU-Mk) were assessed in a collagen-based media formulation containing rhIL-3 (10 ng/mL), rhIL-6 (10 ng/mL), and Tpo (50 ng/mL). Clonogenic progenitors of the human erythroid (CFU-E and BFU-E), myeloid (CFU-GM), and megakaryocyte (CFU-Mk) lineages were set up in the media formulations described above. Individually, the test compounds were added to the medium to give the final desired concentrations (10, 3.33, 1, 0.333, 0.1, 0.0333, 0.01 and 0.00333 μM). […] Solvent control cultures (containing no compound but 0.1% DMSO) as well as standard controls (containing no compound and no DMSO) were also initiated. Once introduced into the matrices, the tubes were vortexed to ensure an equal distribution throughout.
(§5) Human myeloid and erythroid progenitor assays were initiated at 1.2×10^4 cells per culture (lot #0210921) and the human megakaryocyte assays were initiated at 1.2×10^5 cells per culture (lot #0210921). Following 14 days in culture, erythroid and myeloid colonies were assessed microscopically in situ and scored by trained personnel. The colonies were divided into the following categories based on size and morphology: CFU-E, BFU-E, CFU-GM, and CFU-GEMM. The human megakaryocyte cultures were transferred from the 35 mm dishes to labeled glass slides, fixed with methanol/acetone fixative, and then stained with anti-human CD41 antibody and an alkaline phosphate detection system according to manufacturers' instructions. The colonies were assessed microscopically and scored by trained personnel and divided into the following categories based on size: CFU-Mk (3-20), CFU-Mk (21-49), and CFU-Mk (≥50).
(§6) Statistical analysis: The mean±standard deviation of three replicate cultures was calculated for both erythroid and myeloid progenitors. Two-tailed standard t-tests were performed to assess if there was a difference in the number of colonies generated between solvent control and treated cultures. Due to the potential subjectivity of colony enumeration, a p value of less than 0.01 is deemed significant. To calculate the concentration of 50% inhibition of colony growth (IC50) for each compound, a dose response curve was generated plotting the log of the compound concentration versus the percentage of control colony growth using GraphPad Prism 9 software.
(§7) Erythroid (CFU-E and BFU-E) and myeloid (CFU-GM) colony enumeration was performed by trained personnel. In addition, the distribution of colony types as well as general colony and cellular morphology was analyzed. The variance in colony number detected in replicate cultures was representative of the historical coefficient of variation for colony enumeration using these types of assays. The number and distribution of colonies detected in the solvent control (0.1% DMSO for single agents) was no different from the standard control (containing no compound and no DMSO). […]

PIM1 = details: read-out: Preclinical IC50, PIM1; cited from earlier work
[2] = tested on: human megakaryocyte progenitors (CFU-Mk); test: Colony forming cell assay, human megakaryocyte progenitor (CFU-Mk) proliferation; assay type: cell-based; details: Homo sapiens; single agent; read-out: IC50, total CFU-Mk (megakaryocyte progenitor proliferation)
Protocol: as §2, §3, §4, §5, §6
Other than the test compounds being combined, the only change from the method in Example 1 was a 0.2% DMSO solvent control instead of 0.1% DMSO. The results are provided in FIGS. 2A-4C (FIGS. 2A-2C are human megakaryocytes (CFU-MK), FIGS. 3A-3C are human erythroid (CFU-E, BFU-E), and FIGS. 4A-4C are human granulocyte-monocyte (CFU-GM).

[3] = tested on: human erythroid progenitors (CFU-E, BFU-E); test: Colony forming cell assay, human erythroid progenitor (CFU-E, BFU-E) proliferation; assay type: cell-based; details: 336 h, single agent, 14 days, CFU-E and BFU-E
Protocol: as §1, §2, §3
Clonogenic progenitors of human megakaryocyte (CFU-Mk) were assessed in a collagen-based media formulation containing rhIL-3 (10 ng/mL), rhIL-6 (10 ng/mL), and Tpo (50 ng/mL). Clonogenic progenitors of the human erythroid (CFU-E and BFU-E), myeloid (CFU-GM), and megakaryocyte (CFU-Mk) lineages were set up in the media formulations described above. Individually, the test compounds were added to the medium to give the final desired concentrations (10, 3.33, 1, 0.333, 0.1, 0.0333, 0.01 and 0.00333 μM). […]
Human myeloid and erythroid progenitor assays were initiated at 1.2×10^4 cells per culture (lot #0210921) and the human megakaryocyte assays were initiated at 1.2×10^5 cells per culture (lot #0210921). Following 14 days in culture, erythroid and myeloid colonies were assessed microscopically in situ and scored by trained personnel. […] The colonies were assessed microscopically and scored by trained personnel and divided into the following categories based on size: CFU-Mk (3-20), CFU-Mk (21-49), and CFU-Mk (≥50).
Statistical analysis: The mean±standard deviation of three replicate cultures was calculated for both erythroid and myeloid progenitors. […]
as §7

For `CC(C)(O)[C@H]1CC[C@H](Nc2ccc3ncc(-c4cccc(C(F)(F)F)c4)n3n2)CC1` [Compound (1)], the IC50 ([1]; Homo sapiens, 336 h, 14 days, CFU-GM) is listed as 1310 nM, the “concentrations at which myeloid progenitor proliferation was (significantly, additionally) inhibited” value ([1]; vs 0.1% DMSO solvent control, p<0.01) is listed as 1.0 µM and the IC50 (PIM1) is listed as 5 nM. It also gave an IC50 [2] of 1560 nM and an IC50 [3] of 4250 nM.
